Laboratory results published in article PMC4467547 (Journal of Medicinal Chemistry, 2015).
Changes are numbered by the printed parent chain.

Assays:
HH (CTCL) cells = assay: MTS cell proliferation assay; type: cell-based
reactivity with GSH = type: physicochemical; conditions: GSH 2 mM, 2 equiv, 50 mM HEPES pH 7.4, 2 h at 37 °C
WT HDAC8 (Zn2+) = target: T1, WT HDAC8 (Zn2+) (Homo sapiens, UniProt Q9BY41); assay: HDAC8 time-course inhibition; type: biochemical
T1 sequence (Q9BY41 1-377): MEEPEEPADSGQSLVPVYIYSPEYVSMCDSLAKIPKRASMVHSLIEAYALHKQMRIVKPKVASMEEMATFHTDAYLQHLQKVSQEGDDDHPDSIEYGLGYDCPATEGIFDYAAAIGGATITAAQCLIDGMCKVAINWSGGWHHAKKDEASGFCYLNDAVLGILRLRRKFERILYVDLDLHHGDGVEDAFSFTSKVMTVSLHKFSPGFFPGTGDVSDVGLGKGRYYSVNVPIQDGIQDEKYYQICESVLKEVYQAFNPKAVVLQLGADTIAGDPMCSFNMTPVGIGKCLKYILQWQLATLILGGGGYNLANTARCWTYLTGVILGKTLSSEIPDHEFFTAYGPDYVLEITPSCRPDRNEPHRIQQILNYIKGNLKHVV

[1] = test system: tubulin acetylation in Jurkat cells; assay: western blot analysis of tubulin acetylation; type: cell-based; conditions: 6 and 20 μM, 4 h
[2] = stability in the presence of assay components BSA or trypsin; type: physicochemical; conditions: BSA (5 mg/mL) or trypsin (5 mg/mL), 37 °C, 2 h; data not shown
[3] = test system: tubulin acetylation in HH cells; assay: western blot analysis of tubulin acetylation; type: cell-based; conditions: 6 and 20 μM, 4 h
[4] = aqueous stability under simulated physiological conditions; type: physicochemical; conditions: 50 mM HEPES, pH 7.4, 37 °C, 24 h
human plasma stability = type: in vitro ADME; conditions: 1 h, 37 °C
C153A HDAC8 = target: T2, C153A HDAC8 (Homo sapiens, UniProt Q9BY41, C153A); assay: HDAC8 time-course inhibition; conditions: SAHA 0-8 μM, SAHA-OBn 0-10 μM (Figure S8)
T2 sequence (Q9BY41 1-377 C153A): T1 sequence (Q9BY41 1-377) with C153A

Compound	effect on cell proliferation (in words) (HH (CTCL) cells; all cells studied (HH, Jurkat, NIH/3T3))	reactivity with GSH (in words) (reactivity with GSH)	inhibition of HDAC8 activity (in words) (WT HDAC8 (Zn2+); inhibitor 2–10 μM)	less potent than SAHA in cells (HH (CTCL) cells; HH and Jurkat cells)	tubulin acetylation (western blot) [1]	stable in the presence of assay components [2] [%]	tubulin acetylation (western blot) [3]	stable to hydrolysis in the absence of thiols [4] [%]	percent parent compound remaining (human plasma stability)	maximal rate constant for inactivation (WT HDAC8 (Zn2+); at saturating SAHA-TAP) [s^–1]	time of activity loss on preincubation of enzyme with inhibitor (WT HDAC8 (Zn2+); preincubation, data not shown) [h]	inhibition of C153A HDAC8 (in words) (C153A HDAC8)	inhibition of HDAC8 (WT HDAC8 (Zn2+)) [%]
O=C(CCCCCCC(=O)Nc1ccccc1)NOCc1ccccc1 [SAHA-OBn]	unaffected	no change in the HPLC chromatogram	does not inhibit										
CC1=C(C)C(=O)C(CONC(=O)CCCCCCC(=O)Nc2ccccc2)=C(C)C1=O [SAHA-TAP]		reacts rapidly with GSH		3–4 fold	increased tubulin acetylation	> 95	increased tubulin acetylation	> 97	Approximately 72%	0.0013	≤ 0.5		
O=C(CCCCCCC(=O)Nc1ccccc1)NO [SAHA, suberoylanilide hydroxamic acid, reference compound]									~60%			susceptible to inhibition	> 90
